Experimental findings from ChEMBL document CHEMBL1134005, “2-Arylindole-3-acetamides: FPP-competitive inhibitors of farnesyl protein transferase” (Bioorg Med Chem Lett, 2001) are described below.

Assay [1] deals with T1, Protein farnesyltransferase (Homo sapiens, UniProt P49354+P49356). As to the kind of experiment: Concentration required for the inhibitory activity against human Farnesyltransferase. Format: protein-complex assay.
Assay [2] has as its target T1, Protein farnesyltransferase. As to the kind of experiment: Inhibition of HDJ-2 farnesylation in PSN-1 cells. It counts as functional, cell-based.
The target of assay [3] is Geranylgeranyl transferase type I (Homo sapiens, UniProt P49354+P53609). As to the kind of experiment: Inhibitory activity against human Geranylgeranyl transferase type I. Format: protein-complex assay.
In assay [4] the target is T1, Protein farnesyltransferase. As to the kind of experiment: (§1) Inhibition of FPP incorporation into biotinylated K-Ras-derived peptide by human farnesyl transferase with 5 nM ATP. It counts as functional.
The target is the same in assay [5]. As to the kind of experiment: (§2) Inhibition of FPP incorporation into biotinylated K-Ras-derived peptide by human farnesyl transferase. Format: functional.
For assay [6] the target is unchanged. As to the kind of experiment: Inhibition of FPP incorporation into biotinylated K-Ras-derived peptide by human farnesyl transferase 5 nM ATP. It counts as functional.
For assay [7] the target is unchanged. The description is as §2. Format: functional. This is another data set of the same source.
For assay [8] the target is unchanged. The description is as §1. It counts as functional. This is another data set of the same source.
The target is the same in assay [9]. Described as §1. Format: functional. The source holds these as a separate data set.
The target is the same in assay [10]. Described as §2. Format: functional. The source holds these as a separate data set.
The target is the same in assay [11]. Described as §2. Format: functional. The source holds these as a separate data set.
Assay [12] shares this target. The assay is described as §2. It counts as functional. The source holds these as a separate data set.
The target is the same in assay [13]. Described as §1. Format: functional. This is another data set of the same source.
Assay [14] has the same target. As to the kind of experiment: Inhibition of K-Ras farnesylation in PSN-1 cells without GGT1. Format: functional, cell-based.
For assay [15] the target is unchanged. As to the kind of experiment: Inhibition of K-Ras farnesylation in PSN-1 cells with 100 nM GGT1. Format: functional, cell-based.
The target is the same in assay [16]. As to the kind of experiment: Inhibition of HDJ-2 farnesylation in PSN-1 cells at without GGT1. Format: functional, cell-based.
The target is the same in assay [17]. As to the kind of experiment: Inhibition of HDJ-2 farnesylation in PSN-1 cells with 100 nM GGT1. Format: functional, cell-based.

A value given as a limit tells only on which side of the number the result lay.

In turn, `CC(C)N(Cc1ccncc1)C(=O)Cc1c(-c2ccccc2Cl)[nH]c2ccccc12` gave a half-inhibitory concentration (IC50) in assay [1] of 0.046 µM.

`CCCCn1c(-c2ccccc2)c(CC(=O)N(Cc2ccncc2)C(C)C)c2ccccc21` returned a half-inhibitory concentration (IC50) in assay [1] of more than 50 µM.

In turn, `CC(C)N(Cc1ccncc1)C(=O)Cc1cn(Cc2cccc(Br)c2)c2ccccc12` had an IC50 in [1] of 2.15 µM.

`CC(C)N(Cc1ccncc1)C(=O)Cc1cn(Cc2ccccc2Br)c2ccccc12` displayed an IC50 in assay [1] of 0.572 µM.

In assay [1], `N#CCCN(C(=O)Cc1c(-c2ccccc2)[nH]c2ccccc12)C1CC1` registered a half-maximal inhibitory concentration (IC50) of 0.123 µM.

The molecule `CC(C)N(Cc1ccncc1)C(=O)Cc1c(-c2cccc(Cl)c2)[nH]c2ccccc12` yielded an IC50 in assay [1] of 0.172 µM.

As for `O=C(Cc1c(-c2ccccc2)[nH]c2ccccc12)N(Cc1ccncc1)C1CCC1`, the IC50 in assay [1] came out at 0.16 µM.

For the molecule `CC(C#N)N(Cc1cccnc1)C(=O)Cc1c(-c2ccccc2)[nH]c2ccccc12` (stereo not given), the 50% inhibitory concentration (IC50) in [1] came to 0.38 µM.

Take `CC(C)N(Cc1ccncc1)C(=O)Cc1cn(Cc2ccc(Br)cc2)c2ccccc12`: in [1], it took 1.74 µM to reach half-maximal inhibition (IC50).

Molecule `Cc1ccccc1-c1[nH]c2ccccc2c1CC(=O)N(Cc1ccncc1)C(C)C` showed a concentration for half-maximal inhibition (IC50) in assay [1] of 0.031 µM.

`COc1ccccc1-c1[nH]c2ccccc2c1CC(=O)N(Cc1ccncc1)C(C)C` registered a half-maximal inhibitory concentration (IC50) in assay [1] of 1.37 µM.

On to `O=C(Cc1c(-c2ccccc2)[nH]c2ccccc12)N(Cc1cccnc1)C1CC1`, for which the concentration for half-maximal inhibition (IC50) in assay [1] was determined as 0.045 µM.

With `CC(C)N(Cc1ccco1)C(=O)Cc1c(-c2ccccc2)[nH]c2ccccc12`, inhibition in assay [1] was half-maximal at 0.241 µM (IC50).

Consider `O=C(Cc1c(-c2ccccc2)[nH]c2ccccc12)N(Cc1ccncc1)C1CCCC1`, for which the 50% inhibitory concentration (IC50) in assay [1] was 4 µM.

In turn, `O=C(Cc1c(-c2ccccc2)[nH]c2ccccc12)N(Cc1ccncc1)C1CC1` displayed a 50% inhibitory concentration (IC50) in assay [1] of 0.171 µM.

In turn, `CC(C)N(Cc1ccncc1)C(=O)Cc1c(-c2ccc(Br)cc2)[nH]c2ccccc12` registered an IC50 in [1] of 14.4 µM.

The molecule `CC[C@@H](C)N(Cc1ccncc1)C(=O)Cc1c(-c2ccccc2)[nH]c2ccccc12` yielded a half-maximal inhibitory concentration (IC50) in assay [1] of 4.59 µM.

Molecule `CC[C@H](C)N(Cc1ccncc1)C(=O)Cc1c(-c2ccccc2)[nH]c2ccccc12` registered a half-inhibitory concentration (IC50) in [1] of 0.077 µM.

Consider `CC(C)N(Cc1ccncc1)C(=O)Cc1c[nH]c2ccccc12`, for which the half-inhibitory concentration (IC50) in assay [1] is more than 50 µM.

`CC(C)N(Cc1cccnc1)C(=O)Cc1c(-c2ccccc2)[nH]c2ccccc12` showed a concentration for half-maximal inhibition (IC50) in assay [1] of 0.058 µM.

Molecule `Cc1ccccc1-c1[nH]c2ccccc2c1CC(=O)N(CCC#N)C1CC1` returned an IC50 in assay [1] of 0.712 µM.

For `CCn1c(-c2ccccc2)c(CC(=O)N(Cc2ccncc2)C(C)C)c2ccccc21`, the concentration for half-maximal inhibition (IC50) in [1] is 3.8 µM.

Turning to `CC(C)N(Cc1cnccn1)C(=O)Cc1c(-c2ccccc2)[nH]c2ccccc12`, the IC50 in assay [1] came out at 0.4 µM.

For the molecule `Cn1c(-c2ccccc2)c(CC(=O)N(CCC#N)C2CC2)c2ccccc21`, in assay [1], the IC50 stood at 0.182 µM.

Take `O=C(Cc1c(-c2ccccc2)[nH]c2ccccc12)N(Cc1cccnc1)C1CCC1`: the IC50 in assay [1] stood at 0.044 µM.

Consider `CC(C)CN(Cc1ccccn1)C(=O)Cc1c(-c2ccccc2)[nH]c2ccccc12`, for which 1.5 µM corresponded to half-maximal inhibition in [1] (IC50).

Molecule `O=C(Cc1c(-c2ccccc2)[nH]c2ccccc12)N(Cc1cccnc1)Cc1cccnc1` returned a half-inhibitory concentration (IC50) in assay [1] of 2.73 µM.

Consider `CC(C)CN(Cc1cccnc1)C(=O)Cc1c(-c2ccccc2)[nH]c2ccccc12`, for which it took 2.48 µM to reach half-maximal inhibition in assay [1] (IC50).

As for `Cc1ccccc1-c1c(CC(=O)N(Cc2ccncc2)C(C)C)c2ccccc2n1C`, half-maximal inhibition in assay [1] (IC50) was put at 0.012 µM. The EC50 in [2] is 1.06 µM.

The molecule `CCCn1c(-c2ccccc2)c(CC(=O)N(Cc2ccncc2)C(C)C)c2ccccc21` returned an IC50 in [1] of 29.9 µM.

`CC(C)N(Cc1ccncc1)C(=O)Cc1c(-c2ccccc2)[nH]c2ccccc12` displayed an IC50 in assay [1] of 0.041 µM.

As to `CCN(Cc1ccncc1)C(=O)Cc1c(-c2ccccc2)[nH]c2ccccc12`, the IC50 was more than 20 µM in assay [3]; 0.043 µM in assay [4]; 4 µM in assay [5]; 0.106 µM in assay [1]; 0.02 µM in assay [6]; 0.054 µM in assay [7]. In addition, the IC50 worked out at 0.047 µM in [8]; 0.19 µM in [9]; 0.23 µM in assay [10]; 0.23 µM in assay [11]; 0.25 µM in assay [12]; 0.065 µM in [13].

Consider `CC(C)N(Cc1ccncc1)C(=O)Cc1c(-c2ccccc2)n(C)c2ccccc12`, for which the EC50 in assay [14] was more than 30 µM; in assay [15], 1.8 µM; in [16] it was 1.98 µM; in [17] it was 1 µM; in [2], 1.33 µM. The same molecule had a half-inhibitory concentration (IC50) in [1] of 0.015 µM.

In assay [1], `CC(C)N(Cc1ccnn1C)C(=O)Cc1c(-c2ccccc2)[nH]c2ccccc12` registered an IC50 of 0.245 µM.

`CC(C)N(Cc1ccccn1)C(=O)Cc1c(-c2ccccc2)[nH]c2ccccc12` displayed an IC50 in assay [1] of 0.684 µM.

With `CC(C)N(Cc1ccoc1)C(=O)Cc1c(-c2ccccc2)[nH]c2ccccc12`, the midpoint of inhibition in assay [1], the IC50, lay at 0.11 µM.

`CC(C)N(Cc1ccn(C)n1)C(=O)Cc1c(-c2ccccc2)[nH]c2ccccc12` displayed an IC50 in assay [1] of 0.568 µM.

`CC(C)N(Cc1cnn(C)c1)C(=O)Cc1c(-c2ccccc2)[nH]c2ccccc12` yielded a concentration for half-maximal inhibition (IC50) in assay [1] of 0.527 µM.

`N#Cc1ccc(Cn2cncc2CN2CCN(C(=O)NC34CC5CC(CC(C5)C3)C4)CC2)cc1`: the IC50 turned out to be 0.0002 µM in [3] and 0.517 µM in assay [1].

Regarding `CC(C)N(Cc1cncnc1)C(=O)Cc1c(-c2ccccc2)[nH]c2ccccc12`, the half-maximal inhibitory concentration (IC50) in assay [1] is 0.232 µM.

As to `O=C(Cc1c(-c2ccccc2)[nH]c2ccccc12)N(Cc1cccnc1)C1CCCC1`, in assay [1], inhibition was half-maximal at 11.4 µM (IC50).

In assay [1], `N#CCCN(C(=O)Cc1c(-c2ccccc2Cl)[nH]c2ccccc12)C1CC1` registered an IC50 of 1.63 µM.
